The target of one assay is T1, mouse RORγ (Mus musculus, UniProt P51450).
T1 construct: mouse RORγ, from Ile251 to Lys516; expressed in transfected cells; host or cells: CHO cells (Chinese hamster ovary), transient co-transfection with pG5-Luc
T1 sequence (P51450 251-516): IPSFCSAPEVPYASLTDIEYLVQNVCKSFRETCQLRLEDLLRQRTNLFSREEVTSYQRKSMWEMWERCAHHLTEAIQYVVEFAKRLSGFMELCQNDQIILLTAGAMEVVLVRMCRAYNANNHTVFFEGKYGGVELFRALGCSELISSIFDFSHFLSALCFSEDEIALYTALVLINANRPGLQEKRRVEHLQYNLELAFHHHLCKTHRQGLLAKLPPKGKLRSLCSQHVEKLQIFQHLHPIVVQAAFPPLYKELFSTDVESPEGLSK
Kind of assay: In vitro assay of inhibitory effect against RORγ transcriptional activity (GAL4-mRORγ LBD luciferase reporter gene assay in CHO cells). It counts as cell-based. Particulars: for mRORγ luciferase activity, %-of-control: vehicle-control 0.2% DMSO alone = 100%. In outline: (§1)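 CHO cells, transient GAL4-RORγ LBD + pG5-Luc; cmpd 8 conc, 0.2% DMSO, 2 d, 37 °C, 5% CO2. SteadyLite luminescence, %-of-DMSO control (100%), EC50 by curve fit. Cytotoxic concentrations (resazurin) excluded.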

The target in another assay is T2, human RORγ (Homo sapiens, UniProt P51449).
T2 construct: human RORγ, from Ser253 to Lys518; expressed in transfected cells; host or cells: CHO cells (Chinese hamster ovary), transient co-transfection with pG5-Luc
T2 sequence (P51449 253-518): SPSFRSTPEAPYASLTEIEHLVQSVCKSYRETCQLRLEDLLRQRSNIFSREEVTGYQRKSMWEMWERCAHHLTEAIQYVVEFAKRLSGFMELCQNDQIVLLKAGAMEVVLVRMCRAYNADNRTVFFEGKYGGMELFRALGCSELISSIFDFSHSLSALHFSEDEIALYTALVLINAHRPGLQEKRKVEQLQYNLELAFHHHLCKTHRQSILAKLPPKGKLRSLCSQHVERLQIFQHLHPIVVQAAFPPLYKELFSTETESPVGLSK
Kind of assay: In vitro assay of inhibitory effect against RORγ transcriptional activity (GAL4-hRORγ LBD luciferase reporter gene assay in CHO cells). The note with it: for hRORγ luciferase activity, %-of-control: vehicle-control 0.2% DMSO alone = 100%. It counts as cell-based. In outline: as §1
(In general: In a reporter assay the amount or activity of a reporter protein is the signal.)

The mark [1] stands for this setting: GAL4-mRORγ LBD luciferase reporter, CHO cells, read-out: LUC EC50 mRORγ.
Where [2] appears, read: value in parentheses beside the EC50 bound.
Where [3] appears, read: GAL4-hRORγ LBD luciferase reporter, CHO cells, read-out: LUC EC50 hRORγ.
[4] abbreviates: GAL4-mRORγ LBD / pG5-Luc in CHO cells, 2 days incubation.
Where [5] appears, read: value in parentheses beside the > EC50 bound.
Setting [6] is: GAL4-hRORγ LBD / pG5-Luc in CHO cells, 2 days incubation.

Each structure is given as a SMILES string. pEC50: −log10 of the molar value. Where a name gives a salt, the structure may show the parent alone. Read-outs that look alike come from different tables or passages of the source.

The pEC50 is the negative decadic logarithm of the EC50, by convention in mol/L.

Turning to `CC(C)C1=CN(CCC(=O)O)C(=O)N[C@@]1(C)c1ccc(CCC(C)(C)C(=O)O)c(Cl)c1` [Example 261], the pEC50 on mouse RORγ (setting [1]) and at human RORγ (setting [3]) was < 4.70 throughout. The “mRORγ luciferase activity, %-of-control” value at mouse RORγ (setting [2]) was “(100%)”. Also, on human RORγ (setting [2]), the “hRORγ luciferase activity, %-of-control” value is recorded as “(90%)”.

Consider `CC(C)(C)CCc1ccc([C@]2(C)NC(=O)N(CCC(N)=O)C=C2[C@H]2C[C@@H](C(=O)O)C2)cc1Cl` [Example 249], for which the pEC50 at mouse RORγ (setting [1]) is 6.11; on human RORγ (setting [3]) it was 6.39.

`CC(C)C1=CN(CCC(=O)O)C(=O)N[C@]1(C)c1ccc(CCC2CCCCC2)c(Cl)c1` [Example 138]: the pEC50 on mouse RORγ (setting [4]) and on human RORγ (setting [6]) was < 5.10 each time. Moreover, the “mRORγ luciferase activity, %-of-control” value at mouse RORγ (setting [5]) is “(96%)”. The “hRORγ luciferase activity, %-of-control” value at human RORγ (setting [5]) is “(85%)”.

In the case of `CC(C)C1=CN(CCCCC(=O)O)C(=O)N[C@]1(C)c1ccc(CCC(C)(C)C)c(Cl)c1` [Example 47], the negative-log EC50 (pEC50) at mouse RORγ (setting [4]) was 6.12; on human RORγ (setting [6]) it was 5.96.

For the compound `CC(C)C1=CN(CCC(=O)O)C(=O)N[C@@]1(C)c1ccc(CCCC(C)(C)C)c(Cl)c1` [Example 124], the results for the negative logarithm of the EC50 (pEC50) at mouse RORγ (setting [4]) and on human RORγ (setting [6]) were 7.52 and < 6.29, respectively. The “hRORγ luciferase activity, %-of-control” value on human RORγ (setting [5]) is “(54%)”.

For the compound `CC(C)C1=CN(CCCCC(=O)O)C(=O)NC1(C)c1ccc(OCC(C)(C)C)c(Cl)c1` (racemic) [Example 18], the negative logarithm of the EC50 (pEC50) on mouse RORγ (setting [4]) is 7.55; at human RORγ (setting [6]), 7.29.

For `CC(C)CC1=CN(CCCC(=O)O)C(=O)N[C@]1(C)c1ccc(CCC(C)(C)C)c(Cl)c1` [Example 37], the pEC50 on mouse RORγ (setting [4]) was 6.55; on human RORγ (setting [6]), 6.81.

Regarding `CC(C)C1=CN([C@H]2CC[C@@H](C(=O)O)CC2)C(=O)NC1(C)c1ccc(CCC(C)(C)C)c(Cl)c1` (mixture of isomers) [Example 30], the pEC50 was 7.33 at mouse RORγ (setting [4]) and 7.22 at human RORγ (setting [6]).

For `CC(C)C1=CN(CCC(=O)O)C(=O)N[C@@]1(C)c1ccc(C#CC(C)(C)C)c(Cl)c1` [Example 317], the negative logarithm of the EC50 (pEC50) is 7.62 at mouse RORγ (setting [1]) and 7.40 on human RORγ (setting [3]).

In the case of `CC(C)C1=CN(CCC(=O)O)C(=O)N[C@@]1(C)c1ccc(S(=O)(=O)C2CCCC2)c(Cl)c1` [Example 227], the pEC50 at mouse RORγ (setting [1]) and at human RORγ (setting [3]) was < 4.70 each time. Also, the “mRORγ luciferase activity, %-of-control” value on mouse RORγ (setting [2]) is listed as “(87%)”. Also, on human RORγ (setting [2]), the “hRORγ luciferase activity, %-of-control” value is given as “(89%)”.

With `CC(C)C[S+]([O-])c1ccc([C@]2(C)NC(=O)N(CCC(=O)O)C=C2C(C)C)cc1Cl` (mixture of isomers) [Example 215], the negative logarithm of the EC50 (pEC50) on mouse RORγ (setting [1]) and at human RORγ (setting [3]) was < 4.70 in each case. In addition, the “mRORγ luciferase activity, %-of-control” value on mouse RORγ (setting [2]) is “(70%)”. Also, the “hRORγ luciferase activity, %-of-control” value on human RORγ (setting [2]) is recorded as “(77%)”.

With `CC(C)CCOc1c(F)cc([C@]2(C)NC(=O)N(c3ccc(C(=O)O)cc3)C=C2C(C)C)cc1Cl` [Example 192], the values for the pEC50 at mouse RORγ (setting [1]) and at human RORγ (setting [3]) were 7.96 and 7.77, respectively.

With `CC(C)C1=CN(CCC(=O)O)C(=O)N[C@@]1(C)c1ccc(CCC2CCC2)c(Cl)c1` [Example 122], the negative-log EC50 (pEC50) on mouse RORγ (setting [4]) is 7.82; on human RORγ (setting [6]) it was 7.55.

For `CC(C)C1=CN(CCC(=O)O)C(=O)N[C@@]1(C)c1ccc(C2CC(C)(C)C2)c(Cl)c1` [Example 298], the results for the pEC50 at mouse RORγ (setting [1]) and on human RORγ (setting [3]) were 7.74 and 7.66, respectively.

In the case of `CC(C)C1=CN(CCC2(C(=O)O)CC2)C(=O)N[C@]1(C)c1ccc(CCC(C)(C)C)c(Cl)c1` [Example 71], the pEC50 on mouse RORγ (setting [4]) was 6.12; on human RORγ (setting [6]), 6.30.

Regarding `CC(C)C1=CN(c2ccc(C(=O)O)cn2)C(=O)N[C@@]1(C)c1ccc(CCC(C)(C)C)c(Cl)c1` [Example 281, 6-{(S)-4-[3-Chloro-4-(3,3-dimethyl-butyl)-phenyl]-5-isopropyl-4-methyl-2-oxo-3,4-dihydro-2H-pyrimidin-1-yl}-nicotinic Acid hydrochloride], the pEC50 at mouse RORγ (setting [1]) is 7.68; at human RORγ (setting [3]) it was 7.85.

Turning to `CC(C)C1=CN(CCCC(=O)O)C(=O)NC1(C)c1ccc(OCCC(F)(F)F)cc1` (racemic) [Example 105], the pEC50 on mouse RORγ (setting [4]) is 5.77; on human RORγ (setting [6]) it was 5.55.

In the case of `CC(C)C1=CN([C@@H]2CCCC[C@H]2C(=O)O)C(=O)N[C@@]1(C)c1ccc(CCC(C)(C)C)c(Cl)c1` [Example 235], the results for the pEC50 on mouse RORγ (setting [1]) and at human RORγ (setting [3]) were 5.79 and < 5.49, respectively. Also, the “hRORγ luciferase activity, %-of-control” value on human RORγ (setting [2]) is reported as “(70%)”.

As for `CC(C)CCSc1ccc([C@]2(C)NC(=O)N(CCC(=O)O)C=C2C(C)C)cc1Cl` [Example 218], the values for the negative logarithm of the EC50 (pEC50) on mouse RORγ (setting [1]) and on human RORγ (setting [3]) were 6.91 and 6.42, respectively.

As for `CC(C)C1=CN(CCC(=O)O)C(=O)N[C@@]1(C)c1ccc(C2CCCCC2)c(Cl)c1` [Example 136], the pEC50 on mouse RORγ (setting [4]) was 7.31; at human RORγ (setting [6]), 7.03.

For the compound `CC(C)C1=CN([C@H]2CC[C@H](CC(=O)O)CC2)C(=O)N[C@@]1(C)c1ccc(CCC(C)(C)C)c(Cl)c1` [Example 262], the pEC50 at mouse RORγ (setting [1]) and at human RORγ (setting [3]) was 7.66 each time.

`CC(C)(C)CCc1ccc([C@]2(C)NC(=O)N(C3CC(C)(C)C3)C=C2[C@H]2C[C@@H](C(=O)O)C2)cc1Cl` [Example 251]: the pEC50 at mouse RORγ (setting [1]) was 7.55; on human RORγ (setting [3]), 7.89.

As to `CC(C)C1=CN([C@H]2CC[C@H](C(=O)O)CC2)C(=O)N[C@]1(C)c1ccc(CCC(C)(C)C)c(Cl)c1` [Example 78], the pEC50 was 4.97 at mouse RORγ (setting [4]) and 5.19 on human RORγ (setting [6]).

In the case of `CC(C)C1=CN(c2ccc(C(=O)O)cc2)C(=O)N[C@@]1(C)c1ccc(CCC(C)(C)C(F)(F)F)c(Cl)c1` [Example 196], the results for the pEC50 at mouse RORγ (setting [1]) and at human RORγ (setting [3]) were 7.77 and 8.05, respectively.

Take `CC(C)(C)CCc1ccc(C2NC(=O)N(CCCC(=O)O)C=C2C(C)(C)C)cc1Cl` (single isomer, unassigned) [Example 10]: the pEC50 is 7.77 on mouse RORγ (setting [4]) and 8.05 on human RORγ (setting [6]).

On to `CC(C)C1=CN(CCCCC(=O)O)C(=O)N[C@@]1(C)c1ccc(CCC(C)(C)C)c(Cl)c1` [Example 48], for which the pEC50 on mouse RORγ (setting [4]) was 7.80; on human RORγ (setting [6]) it was 7.92.

`CC(C)(C)CCc1ccc(C2NC(=O)N([C@H]3C[C@H](C(=O)O)C3)C=C2C(C)(C)C)cc1Cl` (single isomer, unassigned) [Example 101]: the pEC50 on mouse RORγ (setting [4]) is 7.68; at human RORγ (setting [6]), 7.49.

Consider `COCC(C)C1=CN(c2ccc(C(=O)O)cc2)C(=O)N[C@@]1(C)c1ccc(CCC(C)(C)C)c(Cl)c1` (single isomer, unassigned) [Example 307], for which the negative logarithm of the EC50 (pEC50) was 7.89 on mouse RORγ (setting [1]) and 8.30 on human RORγ (setting [3]).

With `COCCC1=CN(CCC(=O)O)C(=O)N[C@@]1(C)c1ccc(CCC(C)(C)C)c(Cl)c1` [Example 211], the values for the pEC50 on mouse RORγ (setting [1]) and at human RORγ (setting [3]) were 8.10 and 7.96, respectively.

Take `CC(C)C1=CN(C23CC(C(=O)O)(C2)C3)C(=O)N[C@]1(C)c1ccc(CCC(C)(C)C)c(Cl)c1` [Example 76]: the results for the pEC50 on mouse RORγ (setting [4]) and at human RORγ (setting [6]) were 5.20 and 5.46, respectively.

For the compound `COCCC1=CN(CCC(=O)O)C(=O)N[C@@]1(C)c1ccc(CC2CCCCC2)c(Cl)c1` [Example 335], the negative logarithm of the EC50 (pEC50) on mouse RORγ (setting [1]) is 7.96; at human RORγ (setting [3]), 7.59.

In the case of `CC(C)N1C=C(C(C)(C)CCC(=O)O)C(C)(c2ccc(CCC(C)(C)C)c(Cl)c2)NC1=O` (single isomer, unassigned) [Example 172], the pEC50 on mouse RORγ (setting [4]) was 7.74; at human RORγ (setting [6]), 7.89.
